Data taken from patent publication US10981911B2, “Imidazopyrrolopyridine as inhibitors of the JAK family of kinases” (Janssen Pharmaceutica NV, priority 2016, dated 2021).
pIC50: −log10 of the molar value.

Columns and labels:
Assay type in all cases: biochemical
JAK1-JH1JH2 = JAK1-JH1JH2 (Homo sapiens (Human), UniProt P23458); assay: Enzymatic inhibition assay (RapidFire HTMS), JAK1; details: 12.5 μM ATP, 200 μM substrate; read-out: JAK1-JH2JH1 IC50
Procedure, shortened: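 Quenched with 0.5% TFA plus internal-standard peptide; phosphorylated product quantified by RapidFire C4 SPE–ESI-MS, 11-point 1:3 or 1:4 dilutions in duplicate.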

JAK2-JH1JH2 = JAK2-JH1JH2 (Homo sapiens (Human), UniProt O60674); assay: Enzymatic inhibition assay (RapidFire HTMS), JAK2; details: 30 μM ATP, 40 μM substrate
Excerpt: LC/MS grade Water and Acetonitrile (ACN), were purchased from HoneyWell, Burdick & Jackson (Muskegon, Mich., USA). Dimethylsulfoxide 99.8% (DMSO) and Trifluoroacetic Acid 99.5% (TFA) were purchased from EMD Chemical (Gibbstown, N.J., USA). Adenosine triphosphate (ATP), 4-Morpholinepropanesulfonic acid (MOPS), Magnesium chloride (MgCl2), ethylenediaminetetraacetic acid (EDTA), dithiothreitol (DTT), formic acid >95% (FA) and Tween-20 were purchased from Sigma (St Louis, Mo., USA). 384-well polypropylene plates, Cat #781280 were purchased from Greiner (Monroe, N.C.), RapidFire™ cartridge A C4 Column (Agilent Technologies, Santa Clara, Calif.).
The HTMS experiments were performed in positive ionization mode on a RapidFire 300 instrument (Agilent Technologies, Santa Clara, Calif.), coupled with an ABSiex QTrap 4000 system with an Electrospray Ionization source (RF-MS) (Concord, ON, Canada). […] The entire system was operated using the RapidFire software interfaced with Analyst software for the mass spectrometer.
11-point dosing series were made for each compound by serially diluting 1:3 or 1:4 in DMSO, with point 12 being a DMSO control. From the serial dilution plates, sample was transferred to a 384 wells assay plate (#781280, Greiner, Monroe, N.C.) using Labcyte Echo (Sunnyvale, Calif.), or Biosero ATS (San Diego, Calif.). The compounds were tested in duplicate. Column 12 was used for positive controls, and column 24 contained negative controls with no enzyme added. A compound from our internal collection, with inhibitory activity for JAK isoforms, was used as a reference compound. The final concentration of DMSO was ≤0.25% in a 20 μL reaction. […] The Tyk2 enzyme was pre-incubated with 2 mM ATP for 30 min prior to the reaction initiation. Immediately after the addition of the enzyme to the reaction mixture, the plate was centrifuged at 1000 rpm for 1 minute and incubated at 25° C. for 45 minutes for JAK 3 and 90 minutes for JAK1, JAK2 and Tyk2. The reaction was quenched by the addition of 20 μL of 0.5% TFA containing 0.15 μM of internal standard peptide using Multidrop Combi reagent dispenser (Thermo Scientific, Waltham, Mass.). […] After the quench, the assay plate was centrifuged at 3000 rpm for 3 minutes and sealed with pierceable aluminum foil (Cat #06644-001, Agilent) using a PlateLoc (Agilent Technologies, Santa Clara, Calif.). The plates then were transferred on to the RapidFire for the MS analysis. Compound inhibition was assessed by a decrease of the phosphorylated product levels in sample wells compared to the non-inhibited enzyme reaction.
The sample analysis on the RapidFire was performed using a mobile phase A consisting of Water/TFA/FA (100:0.01:0.1, v/v/v), a mobile phase B consisting of ACN/Water/TFA/FA (80:20:0.01:0.1, v/v/v). […] The samples were aspirated directly from the 384 assay plate and delivered onto RF-MS microscale solid-phase C4 extraction cartridge (Type A). The undesired component such as salt, cofactor, detergent and large protein were washed out and the retained analytes (substrate, product and IS) were coeluted directly onto the ABSiex Qtrap 4000 system.

JAK3-JH1JH2 = JAK3-JH1JH2 (Homo sapiens (Human), UniProt P52333); assay: Enzymatic inhibition assay (RapidFire HTMS), JAK3; details: 150 μM ATP, 40 μM substrate
Procedure, shortened: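 Compounds tested in duplicate over 11-point 1:3 or 1:4 dilution series; no-enzyme wells as negative control. After 45 min at 25 °C, TFA quench with internal standard, and phosphorylated product quantified by RapidFire–QTrap mass spectrometry relative to the uninhibited reaction.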

Tyk2-JH1JH2 = Tyk2-JH1JH2 (Homo sapiens (Human), UniProt P29597, C1142A/C936A); assay: Enzymatic inhibition assay (RapidFire HTMS), Tyk2; details: 50 μM ATP, 200 μM substrate
Procedure, shortened: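 Compounds were tested in duplicate as 11-point 1:3 or 1:4 DMSO dilutions (≤0.25% DMSO final) in 20 μL reactions at 25 °C for 90 min, with Tyk2 pre-incubated 30 min with 2 mM ATP. Reactions were quenched with TFA plus internal standard peptide, and phosphorylated product was quantified by RapidFire C4 SPE–ESI MS.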

Sequence of JAK3-JH1JH2 (P52333 512-1124): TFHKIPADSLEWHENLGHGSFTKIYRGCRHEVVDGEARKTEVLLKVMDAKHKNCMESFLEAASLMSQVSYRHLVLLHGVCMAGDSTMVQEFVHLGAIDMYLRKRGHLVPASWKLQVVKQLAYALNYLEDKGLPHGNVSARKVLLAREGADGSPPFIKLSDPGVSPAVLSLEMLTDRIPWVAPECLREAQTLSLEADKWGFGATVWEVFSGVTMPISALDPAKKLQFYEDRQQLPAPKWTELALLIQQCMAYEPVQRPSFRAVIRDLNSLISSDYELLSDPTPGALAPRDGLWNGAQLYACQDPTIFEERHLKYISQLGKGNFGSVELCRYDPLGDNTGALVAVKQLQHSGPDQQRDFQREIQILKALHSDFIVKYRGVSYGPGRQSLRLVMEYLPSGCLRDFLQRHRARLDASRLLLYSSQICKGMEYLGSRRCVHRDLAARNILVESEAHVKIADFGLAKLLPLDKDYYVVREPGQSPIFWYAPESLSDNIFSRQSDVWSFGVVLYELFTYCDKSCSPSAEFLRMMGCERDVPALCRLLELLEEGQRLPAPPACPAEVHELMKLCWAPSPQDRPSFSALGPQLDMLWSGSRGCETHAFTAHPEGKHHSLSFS
Sequence of JAK1-JH1JH2 (P23458 574-1154): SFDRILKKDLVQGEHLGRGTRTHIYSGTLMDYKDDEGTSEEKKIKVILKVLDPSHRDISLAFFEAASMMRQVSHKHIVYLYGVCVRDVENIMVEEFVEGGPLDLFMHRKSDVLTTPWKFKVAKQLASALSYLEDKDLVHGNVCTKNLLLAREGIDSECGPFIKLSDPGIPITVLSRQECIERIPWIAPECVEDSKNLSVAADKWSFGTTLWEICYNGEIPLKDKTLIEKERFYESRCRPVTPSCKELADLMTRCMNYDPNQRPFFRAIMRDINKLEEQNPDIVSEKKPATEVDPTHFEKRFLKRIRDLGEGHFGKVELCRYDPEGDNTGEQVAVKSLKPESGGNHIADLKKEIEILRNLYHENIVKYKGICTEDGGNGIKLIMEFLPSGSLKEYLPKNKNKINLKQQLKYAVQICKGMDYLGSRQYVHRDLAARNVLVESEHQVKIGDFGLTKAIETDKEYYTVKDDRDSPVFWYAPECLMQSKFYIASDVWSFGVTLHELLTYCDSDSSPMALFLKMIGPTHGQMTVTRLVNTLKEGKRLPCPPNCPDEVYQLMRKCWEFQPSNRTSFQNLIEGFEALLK
Sequence of JAK2-JH1JH2 (O60674 532-1132): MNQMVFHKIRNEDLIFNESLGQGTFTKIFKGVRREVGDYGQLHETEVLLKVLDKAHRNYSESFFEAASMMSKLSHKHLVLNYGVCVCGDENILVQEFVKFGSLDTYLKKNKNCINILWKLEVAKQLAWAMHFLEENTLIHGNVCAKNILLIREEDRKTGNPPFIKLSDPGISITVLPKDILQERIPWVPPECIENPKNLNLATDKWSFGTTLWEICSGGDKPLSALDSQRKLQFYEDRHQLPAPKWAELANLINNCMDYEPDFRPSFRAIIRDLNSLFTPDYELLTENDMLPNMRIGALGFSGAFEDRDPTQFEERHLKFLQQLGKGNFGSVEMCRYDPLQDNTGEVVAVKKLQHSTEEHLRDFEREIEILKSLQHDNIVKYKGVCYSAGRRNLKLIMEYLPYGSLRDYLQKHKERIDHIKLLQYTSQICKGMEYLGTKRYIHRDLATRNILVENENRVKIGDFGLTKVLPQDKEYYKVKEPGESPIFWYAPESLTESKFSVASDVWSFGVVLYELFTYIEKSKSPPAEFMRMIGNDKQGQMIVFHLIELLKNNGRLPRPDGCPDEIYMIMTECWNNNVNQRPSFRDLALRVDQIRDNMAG
Sequence of Tyk2-JH1JH2 (P29597 580-1182 C936A/C1142A): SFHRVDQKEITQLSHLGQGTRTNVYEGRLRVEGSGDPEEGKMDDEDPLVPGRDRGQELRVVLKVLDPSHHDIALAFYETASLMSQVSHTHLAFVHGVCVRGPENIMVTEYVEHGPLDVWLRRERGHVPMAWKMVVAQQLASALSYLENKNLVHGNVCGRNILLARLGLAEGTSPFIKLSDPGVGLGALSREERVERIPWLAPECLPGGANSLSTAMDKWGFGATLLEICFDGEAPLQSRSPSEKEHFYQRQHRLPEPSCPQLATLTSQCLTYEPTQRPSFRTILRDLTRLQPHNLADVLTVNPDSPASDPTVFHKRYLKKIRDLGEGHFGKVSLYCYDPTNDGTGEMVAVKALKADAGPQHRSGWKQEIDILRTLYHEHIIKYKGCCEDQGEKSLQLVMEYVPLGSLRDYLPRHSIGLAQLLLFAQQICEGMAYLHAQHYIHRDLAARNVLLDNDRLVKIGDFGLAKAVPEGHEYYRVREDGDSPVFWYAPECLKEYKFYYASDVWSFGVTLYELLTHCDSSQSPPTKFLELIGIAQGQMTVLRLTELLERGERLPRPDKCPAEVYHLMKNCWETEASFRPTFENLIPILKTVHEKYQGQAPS

| pIC50 (JAK1-JH1JH2) | pIC50 (JAK2-JH1JH2) | pIC50 (JAK3-JH1JH2) | pIC50 (Tyk2-JH1JH2) | SMILES |
| --- | --- | --- | --- | --- |
| 9.70 | 8.29 | 7.06 | 8.24 | N#CC[C@H]1CC[C@H](n2c(CC(=O)NCCOc3ccncc3)nc3cnc4[nH]ccc4c32)CC1 [Ex. 43, 2-(1-((1r,4r)-4-(Cyanomethyl)cyclohexyl)-1,6-dihydroimidazo[4,5-d]pyrrolo[2,3-b]pyridin-2-yl)-N-(2-(pyridin-4-yloxy)ethyl)acetamide] |
| 9.70 | 8.49 | 6.90 | 8.24 | N#CC[C@H]1CC[C@H](n2c(-c3cnc(N)nc3)nc3cnc4[nH]ccc4c32)CC1 [Ex. 51, 2-((1r,4r)-4-(2-(2-Aminopyrimidin-5-yl)imidazo[4,5-d]pyrrolo[2,3-b]pyridin-1(6H)-yl)cyclohexyl)acetonitrile] |
| 9.70 | 8.49 | 7.21 | 8.05 | N#CC[C@H]1CC[C@H](n2c(-c3ccnc(N)n3)nc3cnc4[nH]ccc4c32)CC1 [Ex. 53, 2-((1r,4r)-4-(2-(2-Aminopyrimidin-4-yl)imidazo[4,5-d]pyrrolo[2,3-b]pyridin-1(6H)-yl)cyclohexyl)acetonitrile] |
| 9.70 | 8.72 | 7.48 | 8.14 | N#CC[C@H]1CC[C@H](n2c(-c3ncc[nH]3)nc3cnc4[nH]ccc4c32)CC1 [Ex. 56, 2-((1r,4r)-4-(2-(1H-Imidazol-2-yl)imidazo[4,5-d]pyrrolo[2,3-b]pyridin-1(6H)-yl)cyclohexyl)acetonitrile] |
| 9.52 | 8.77 | 7.14 | 8.47 | N#CC[C@H]1CC[C@H](n2c(-c3cc[nH]n3)nc3cnc4[nH]ccc4c32)CC1 [Ex. 60, 2-((1r,4r)-4-(2-(1H-Pyrazol-3-yl)imidazo[4,5-d]pyrrolo[2,3-b]pyridin-1(6H)-yl)cyclohexyl)acetonitrile] |
| 9.52 | 7.59 | 6.66 | 8.20 | CC(C)/C(=N/O)NCc1nc2cnc3[nH]ccc3c2n1[C@H]1CC[C@H](CC#N)CC1 [Ex. 61, (EZ)—N-((1-((1r,4r)-4-(cyanomethyl)cyclohexyl)-1,6-dihydroimidazo[4,5-d]pyrrolo[2,3-b]pyridin-2-yl)methyl)-N-hydroxyisobutyrimidamide] |

Continued, compound first:

| SMILES | pIC50 (JAK1-JH1JH2) | pIC50 (JAK2-JH1JH2) | pIC50 (JAK3-JH1JH2) | pIC50 (Tyk2-JH1JH2) |
| --- | --- | --- | --- | --- |
| N#CC[C@H]1CC[C@H](n2c(CC(=O)N3CC[C@H](O)C3)nc3cnc4[nH]ccc4c32)CC1 [Ex. 42, 2-((1S,4r)-4-(2-(2-((S)-3-Hydroxypyrrolidin-1-yl)-2-oxoethyl)imidazo[4,5-d]pyrrolo[2,3-b]pyridin-1(6H)-yl)cyclohexyl)acetonitrile] | 9.70 | 7.61 | 6.36 | 8.11 |
| CC(C)(C)CNC(=O)Cc1nc2cnc3[nH]ccc3c2n1[C@H]1CC[C@H](CC#N)CC1 [Ex. 44, 2-(1-((1r,4r)-4-(Cyanomethyl)cyclohexyl)-1,6-dihydroimidazo[4,5-d]pyrrolo[2,3-b]pyridin-2-yl)-N-neopentylacetamide] | 9.70 | 8.27 | 7.28 | 8.22 |
| N#CC[C@H]1CC[C@H](n2c(CC(=O)NCc3ccc(F)cc3)nc3cnc4[nH]ccc4c32)CC1 [Ex. 45, 2-(1-((1r,4r)-4-(Cyanomethyl)cyclohexyl)-1,6-dihydroimidazo[4,5-d]pyrrolo[2,3-b]pyridin-2-yl)-N-(4-fluorobenzyl)acetamide] | 9.70 | 8.21 | 6.74 | 7.91 |
| N#CC[C@H]1CC[C@H](n2c(CNC(=O)Oc3ccccc3)nc3cnc4[nH]ccc4c32)CC1 [Ex. 46, Phenyl ((1-((1r,4r)-4-(cyanomethyl)cyclohexyl)-1,6-dihydroimidazo[4,5-d]pyrrolo[2,3-b]pyridin-2-yl)methyl)carbamate] | 9.70 | 7.84 | 6.67 | 8.26 |
| N#CC[C@H]1CC[C@H](n2c(CC(=O)N[C@H]3CC[C@@H](O)CC3)nc3cnc4[nH]ccc4c32)CC1 [Ex. 47, 2-(1-((1r,4r)-4-(Cyanomethyl)cyclohexyl)-1,6-dihydroimidazo[4,5-d]pyrrolo[2,3-b]pyridin-2-yl)-N-((1S,4S)-4-hydroxycyclohexyl)acetamide] | 9.70 | 8.64 | 7.41 | 8.29 |
| N#CC[C@H]1CC[C@H](n2c(CC(=O)N3CCCC3)nc3cnc4[nH]ccc4c32)CC1 [Ex. 49, 2-((1r,4r)-4-(2-(2-Oxo-2-(pyrrolidin-1-yl)ethyl)imidazo[4,5-d]pyrrolo[2,3-b]pyridin-1(6H)-yl)cyclohexyl)acetonitrile] | 9.70 | 7.36 | 6.60 | 8.38 |
| N#CC[C@H]1CC[C@H](n2c(C(=O)N3CCC(O)(c4ccccc4)C3)nc3cnc4[nH]ccc4c32)CC1 (stereo partly drawn) [Ex. 50, 2-((1r,4r)-4-(2-(3-Hydroxy-3-phenylpyrrolidine-1-carbonyl)imidazo[4,5-d]pyrrolo[2,3-b]pyridin-1(6H)-yl)cyclohexyl)acetonitrile] | 9.70 | 8.40 | 7.00 | 7.68 |
| N#CC[C@H]1CC[C@H](n2c(CC(=O)NC34CCC(C(N)=O)(CC3)C4)nc3cnc4[nH]ccc4c32)CC1 [Ex. 54, 4-(2-(1-((1r,4r)-4-(Cyanomethyl)cyclohexyl)-1,6-dihydroimidazo[4,5-d]pyrrolo[2,3-b]pyridin-2-yl)acetamido)bicyclo[2.2.1]heptane-1-carboxamide] | 9.70 | 8.68 | 7.38 | 8.38 |
| N#CC[C@H]1CC[C@H](n2c(CC(=O)NCC(F)(F)F)nc3cnc4[nH]ccc4c32)CC1 [Ex. 57, 2-(1-((1r,4r)-4-(Cyanomethyl)cyclohexyl)-1,6-dihydroimidazo[4,5-d]pyrrolo[2,3-b]pyridin-2-yl)-N-(2,2,2-trifluoroethyl)acetamide] | 9.70 | 8.25 | 7.16 | 8.47 |
| N#CC[C@H]1CC[C@H](n2c(CC(=O)NC34CCC(C(N)=O)(CC3)CC4)nc3cnc4[nH]ccc4c32)CC1 [Ex. 58, 4-(2-(1-((1r,4r)-4-(Cyanomethyl)cyclohexyl)-1,6-dihydroimidazo[4,5-d]pyrrolo[2,3-b]pyridin-2-yl)acetamido)bicyclo[2.2.2]octane-1-carboxamide] | 9.52 | 8.85 | 7.50 | 8.48 |
| CC(C)(O)CCNC(=O)Cc1nc2cnc3[nH]ccc3c2n1[C@H]1CC[C@H](CC#N)CC1 [Ex. 59, 2-(1-((1r,4r)-4-(Cyanomethyl)cyclohexyl)-1,6-dihydroimidazo[4,5-d]pyrrolo[2,3-b]pyridin-2-yl)-N-(3-hydroxy-3-methylbutyl)acetamide] | 9.52 | 8.17 | 6.91 | 8.14 |
| CC(C)CN1CCC(NC(=O)Cc2nc3cnc4[nH]ccc4c3n2[C@H]2CC[C@H](CC#N)CC2)CC1 [Ex. 62, 2-(1-((1r,4r)-4-(Cyanomethyl)cyclohexyl)-1,6-dihydroimidazo[4,5-d]pyrrolo[2,3-b]pyridin-2-yl)-N-(1-isobutylpiperidin-4-yl)acetamide] | 9.52 | 8.68 | 7.51 | 8.59 |
